Like-named read-outs stand apart in the source and are kept apart here.
Key:
5-HT2A receptors = 5-HT2A receptors (Homo sapiens (Human), UniProt P28223); test: 5-HT2A receptor radioligand competition binding assay ([3H]-ketanserin)
Method: The affinity of the compounds of the present disclosure for 5-HT2A receptors was determined by a radioligand competition binding assay. In the first step, a cell membrane component containing specific 5-HT2A receptor was prepared. A 10 cm dish was used for transfection with […] of 5-HT2A receptors and 40 μL of PEI. After 48 hours, the 10 cm dish was taken out from the cell incubator and the cultured cells had expressed the 5-HT2A receptors. A vacuum pump was used to suck off the culture medium, 3 mL of lysis buffer was added to each culture dish, and the cells were placed in a 4° C. cold room for 10 minutes. After the cells were detached, the cells were transferred to a 15 mL centrifuge tube and centrifuged at 1500 rpm for 5 minutes at 4° C., and the supernatant was discarded. The cell pellet was transferred to a tissue homogenizer, and 3 mL of lysis buffer was added and fully ground until the cells were broken. Then, cell suspension was equally aliquoted into several EP tubes, centrifuged at 12000 rpm for 5 minutes at 4° C., and the supernatant was discarded. The precipitate was the cell membrane component containing the 5-HT2A receptors. […] First, a standard binding buffer was added to the cell membrane component containing the 5-HT2A receptors, and the cell membrane was disrupted and resuspended with an electric tissue homogenizer. 30 μL of membrane protein suspension was added to each well of a 96-well plate. Then, 30 μL of different drugs were added to the 96-well plate sequentially from bottom to top to ensure that the final drug concentrations were 10^−5 M, 10^−6 M, 10^−7 M, 10^−8 M, 10^−9 M, and 0 M, with two replicates per treatment. Next, 30 μL of [^3H]-ketanserin was added to each well of the 96-well plate. The plate was incubated at room temperature in the dark for 2 hours. Detection was conducted. The machine readout value reflected the amount of [^3H]-ketanserin bound on the membrane, and after further data processing, the affinity Ki values of different compounds for the 5-HT2A receptors were obtained.

[1] = Pharmacokinetics in SD rats, single dose intragastric and intravenous; format: in vivo; settings: male, rat, plasma; for Vd: read-out: Apparent volume of distribution Vdss; for AUC(0-t): read-out: Area under the drug-time curve AUC0-t; for clearance: read-out: Clearance CL; for half-life: read-out: Elimination half-life t1/2 (converted); for MRT: read-out: Mean residence time MRT; for bioavailability: read-out: Bioavailability F; for Tmax: read-out: Time to peak concentration tmax
Method: Testing of pharmacokinetic properties of compounds administered in a single dose to SD rats by intragastric administration and intravenous injection
After the compound was administered in a single dose to male SD rats, blood samples were collected at different time points. The concentration of the compound in the plasma of the rats was determined by LC-MS/MS and the relevant pharmacokinetic parameters were calculated to investigate the pharmacokinetics of the compound in rats.
Male SD rats were provided by Suzhou JOINN Laboratories Co., Ltd. SD rats were fasted with free access to water for 12 to 14 hours one day before administration, and were fed 4 hours after administration.
For each compound, the […] were divided into two groups: intravenous injection and intragastric administration, with 3 rats in each group. For both intravenous injection (administered at a dose of 3 mg/kg and a concentration of 0.6 mL/kg) and intragastric administration (administered at a dose of 10 mg/kg and a concentration of 1 mL/kg), 5% DMSO+5% Solutol+90% saline was used as the vehicle.
Sample collection: 0.10 mL of blood was collected from the orbit of each animal in IV/PO groups each time at 5 minutes, 15 minutes, 30 minutes, 1 hour, 2 hours, 4 hours, 6 hours, 8 hours, and 24 hours after administration of the test compound, and anticoagulated with EDTA-K2. Blood samples were placed on ice after collection, and plasma was separated by centrifugation within 30 minutes (centrifugation conditions: 5000 rpm, 10 minutes, 4° C.). The collected plasma was stored at −80° C. before analysis.
Data processing: The data acquisition and control system software was Analyst 1.5.1 software (Applied Biosystem). The peak integration method of chromatographic samples was automatic integration; the ratio of the peak area of the sample to the peak area of the internal standard was used as an index for regression with the concentration of the sample. […] Pharmacokinetic parameters were analyzed with a non-compartmental model using WinNonlin Professional v6.3 (Pharsight, USA). Cmax was the measured maximum plasma concentration, the area under the plasma concentration-time curve AUC(0→t) was calculated by the trapezoidal method, and tmax was the time to peak plasma concentration after administration. Experimental data were presented as “Mean±SD” (n≥3) or “Mean” (n=2).

[2] = Brain permeability test, single intraperitoneal dose in C57 male mice; format: in vivo; settings: intraperitoneal 5 mg/kg; for Kp at 0.5 h / Kp at 2 h / concentration at 0.5 h / concentration at 2 h / Kp at 4 h / Kp / concentration at 4 h / AUC: male, C57, mouse; for Kp at 0.5 h / Kp at 2 h / Kp at 4 h / Kp: brain/plasma; for Kp at 0.5 h / Kp at 2 h / Kp at 4 h / Kp / AUC: ip; for Kp at 0.5 h: read-out: 0.5 h ratio (brain/plasma); for Kp at 2 h: read-out: 2.0 h ratio (brain/plasma); for Kp at 4 h: read-out: 4.0 h ratio (brain/plasma); for Kp: read-out: AUC ratio (brain/plasma)
Method: Using the same method as that in the pharmacokinetic experiment, 0.030 mL of blood was collected from the orbit of each animal at 0.5 hours, 2.0 hours, and 4.0 hours, and anticoagulated with EDTA-K2. Blood samples were placed on ice after collection, and plasma was separated by centrifugation within 30 minutes (centrifugation conditions: 5000 rpm, 10 minutes, 4° C.). The collected plasma was stored at −80° C. before analysis. […] The homogenate was stored at −80° C. before analysis. Drug concentrations in plasma and brain tissues were analyzed by LC/MS/MS for comparison.

[3] = intravenous injection, 3 mg/kg, read-out: Peak drug concentration C0 or Cmax
[4] = oral administration, 10 mg/kg, read-out: Peak drug concentration Cmax
[5] = brain, read-out: 0.5 h brain concentration
[6] = plasma, read-out: 0.5 h plasma concentration
[7] = brain, read-out: 2.0 h brain concentration
[8] = plasma, read-out: 2.0 h plasma concentration
[9] = brain, read-out: 4.0 h brain concentration
[10] = plasma, read-out: 4.0 h plasma concentration

Chain of 5-HT2A receptors (P28223 whole entry): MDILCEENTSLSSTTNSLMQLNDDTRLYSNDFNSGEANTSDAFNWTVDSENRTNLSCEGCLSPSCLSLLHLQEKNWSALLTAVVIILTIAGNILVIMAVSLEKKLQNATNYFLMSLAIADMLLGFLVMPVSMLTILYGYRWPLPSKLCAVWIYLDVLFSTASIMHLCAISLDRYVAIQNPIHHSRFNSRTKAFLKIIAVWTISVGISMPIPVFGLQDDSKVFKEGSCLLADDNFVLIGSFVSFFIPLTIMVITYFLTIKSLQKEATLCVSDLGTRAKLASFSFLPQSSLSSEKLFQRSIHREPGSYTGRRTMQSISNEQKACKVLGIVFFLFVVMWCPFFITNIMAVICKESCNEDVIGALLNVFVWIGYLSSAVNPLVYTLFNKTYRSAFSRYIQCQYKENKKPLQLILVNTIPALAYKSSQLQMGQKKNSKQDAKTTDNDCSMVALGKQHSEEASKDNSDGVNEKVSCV

Row | SMILES | Vd ([1]; intravenous injection, 3 mg/kg) [L/kg] | AUC(0-t) ([1]; intravenous injection, 3 mg/kg) [ng·h/mL] | clearance ([1]; intravenous injection, 3 mg/kg) [mL/min/kg] | half-life ([1]; intravenous injection, 3 mg/kg) [h] | MRT ([1]; intravenous injection, 3 mg/kg) [h] | Cmax [1, 3] [ng/mL] | AUC(0-t) ([1]; oral administration, 10 mg/kg) [ng·h/mL] | bioavailability ([1]; oral administration, 10 mg/kg) [%] | half-life ([1]; oral administration, 10 mg/kg) [h] | MRT ([1]; oral administration, 10 mg/kg) [h] | Cmax [1, 4] [ng/mL] | Tmax ([1]; oral administration, 10 mg/kg) [h] | Kp at 0.5 h [2] | Kp at 2 h [2] | concentration at 0.5 h [2, 5] [ng/mL] | concentration at 0.5 h [2, 6] [ng/mL] | concentration at 2 h [2, 7] [ng/mL] | concentration at 2 h [2, 8] [ng/mL] | AUC brain ([2]; brain) [ng·h/mL] | Kp at 4 h [2] | further results
1 | COc1cccc2c3c([nH]c12)CN(CC[C@H]1CC[C@H](NC(=O)N(C)C)CC1)CC3 [I-B7, 3-(trans-4-(2-(8-methoxy-1,3,4,9-tetrahydro-2H-pyrido[3,4-b]indol-2-yl)ethyl)cyclohexyl)-1,1-dimethylurea] | 7.56 ± 0.4 | 2350 ± 127 | 21 ± 1.2 | 3.91 ± 0.3 | 6.01 ± 0.2 | 330 ± 61 | 10200 ± 945 | 128 ± 12 | 5.12 ± 0.7 | 8.08 ± 0.23 | 734 ± 34 | 3.17 ± 4 | 0.656 | 0.643 | 392 ± 15 | 598 ± 19 | 73 ± 129 | 114 ± 67.9 | – | – | affinity for 5-HT2A receptors (in words) (5-HT2A receptors): very weak affinity; Ki (5-HT2A receptors; [3H]-ketanserin, 293T membranes, read-out: Ki): 3.51 µM
2 | COc1cccc2c1cc1n2CCN(CCCCOc2ccc3ccc(=O)[nH]c3c2)C1 [I-C1, 7-(4-(9-methoxy-3,4-dihydropyrazino[1,2-a]indol-2(1H)-yl)butoxy)quinolin-2(1H)-one] | 2.16 ± 0.1 | 4970 ± 751 | 10.1 ± 1.4 | 3.63 ± 0.7 | 3.58 ± 0.3 | 3310 ± 349 | 8140 ± 2050 | 48.8 | 7.36 ± 4.2 | 10 ± 6.5 | 1150 ± 198 | 0.25 | 0.478 | 0.663 | 1940 ± 63 | 4060 ± 367 | 732 ± 56 | 1100 ± 89 | 3385 | 0.541 | Kp [2]: 0.538; concentration at 4 h [2, 9]: 161 ± 55 ng/mL; concentration at 4 h [2, 10]: 297 ± 106 ng/mL; AUC ([2]; plasma): 6290 ng·h/mL
3 | COc1cccc2c1cc1n2CCN(CCCCOc2ccc3c(c2)NC(=O)CC3)C1 [I-C2, 7-(4-(9-methoxy-3,4-dihydropyrazino[1,2-a]indol-2(1H)-yl)butoxy)-3,4-dihydroquinolin-2(1H)-one] | 1.51 ± 0.3 | 2790 ± 842 | 19.1 ± 6.8 | 1.79 ± 1.1 | 1.38 ± 0.3 | 3340 ± 629 | 7730 ± 467 | 82.4 ± 5 | 4.09 ± 1.6 | 5.46 ± 0.09 | 1310 ± 701 | 0.33 ± 0.14 | 0.855 | 0.834 | 2800 ± 208 | 3280 ± 456 | 1260 ± 279 | 1510 ± 545 | 5561 | 0.931 | Kp [2]: 0.853; concentration at 4 h [2, 9]: 599 ± 54 ng/mL; concentration at 4 h [2, 10]: 558 ± 100 ng/mL; AUC ([2]; plasma): 6520 ng·h/mL
